# Experimental data: publication PMC12797497, “Si-Ni-San improves the deposition of lipid droplets in MAFLD through modulating the FXR-GPAT4 axis” (Chinese Medicine, 2026)
# “Also recorded” adds a separate entry of the source.
# Assays:
# FXR protein = molecular target: T1, FXR protein (Homo sapiens, UniProt Q96RI1); assay: Surface plasmon resonance (SPR), FXR immobilized on CM5 chip; assay type: binding; conditions: SPR steady-state affinity fit
# T1 sequence (Q96RI1 1-486): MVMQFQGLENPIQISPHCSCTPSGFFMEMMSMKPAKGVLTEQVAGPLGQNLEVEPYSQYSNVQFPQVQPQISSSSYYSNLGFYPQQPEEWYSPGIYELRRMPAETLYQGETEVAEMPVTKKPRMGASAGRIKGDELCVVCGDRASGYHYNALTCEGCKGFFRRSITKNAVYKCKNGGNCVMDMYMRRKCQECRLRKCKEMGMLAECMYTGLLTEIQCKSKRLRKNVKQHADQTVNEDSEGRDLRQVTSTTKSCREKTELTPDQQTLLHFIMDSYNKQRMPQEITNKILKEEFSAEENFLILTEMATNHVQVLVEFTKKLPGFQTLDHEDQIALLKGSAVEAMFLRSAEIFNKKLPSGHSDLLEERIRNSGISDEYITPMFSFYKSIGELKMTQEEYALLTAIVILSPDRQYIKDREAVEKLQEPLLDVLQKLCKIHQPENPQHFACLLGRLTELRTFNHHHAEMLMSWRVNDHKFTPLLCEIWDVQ
# Method: SPR analysis was performed by a Biacore S200 system (Cytiva, USA) equipped with a CM5 sensor chip. The FXR protein was immobilized on the chip via the standard amine coupling protocol, with the protein dissolved in a sodium acetate buffer at pH 4.5 and a concentration of 10 mM. […] Equilibrium dissociation constants (KD) were determined by fitting the response curves using the steady-state affinity model available in the Biacore S200 Evaluation Software.
# MAFLD mice = assay: HFD-induced MAFLD mouse model: body/liver weight, histology, serum biochemistry, hepatic TBA; assay type: in vivo, C57BL/6N mice; conditions: SNS 5.2 g/kg/d or OCA 10 mg/kg/d orally for 2 weeks
# Source text: (§1) A standard diet was fed to the NC group, while HFD (D12451, Huanyu Hekang Biotechnology, China) was fed to the other four groups for 12 weeks. […] During this period, mice in the NC group and HFD group were given isovolumetric distilled water respectively.
# Serum samples were collected to measure the content of TG, total cholesterol (TC), alanine aminotransferase (ALT), aspartate aminotransferase (AST), high-density lipoprotein cholesterol (HDL-C), and low-density lipoprotein cholesterol (LDL-C). The Reado/Changchun Huili kit was used for the assay, measured by a fully automatic biochemistry analyzer.
# The TBA content in liver tissue was detected by a TBA assay kit (E003-2-1, Nanjing Jiancheng Bioengineering Institute, China). According to the kit instruction manual, the liver tissues were subjected to lysis, after which the supernatant was collected and added to a 96-well plate. Blank controls and standard controls were set up. Subsequently, 180 μL of Reagent 1 was added, followed by gentle shaking to mix thoroughly, and incubation at 37 °C for 5 min. After that, 60 μL of Reagent 2 was added, mixed well by gentle shaking, and incubated at 37 °C for 1 min. The absorbance (A0) was measured at a wavelength of 405 nm using a microplate reader. Another incubation at 37 °C for 3 min was conducted, and then the absorbance (A1) was measured again. The ΔA value was calculated as ΔA = A1−A0, which represents the TBA content in the liver tissues.
# Liver tissue from each group of mice was fixed in 4% formalin, embedded in paraffin, and prepared as paraffin tissue sections with a thickness of 5 μm. The sections were dewaxed and rehydrated, subsequently subjected to H&E staining, and finally examined under a microscope (Leica DM2500, Germany) for the observation of LDs.
# Lipid accumulation in vivo was assessed by oil red O (ORO) staining (G1261, Solarbio, China). For liver tissue, frozen tissue sections were prepared at a thickness of 10 μm. After fixation in formalin, the sections were washed in 60% isopropanol and then stained with freshly prepared ORO working solution for 15 min. Following rinsing with 60% isopropanol, the sections were examined under a microscope.
# [1] = test system: HSL, ATGL, MAGL, P62, Beclin1, LC3Ⅰ/Ⅱ; assay: Lipolysis- and lipophagy-related protein expression in liver of MAFLD mice (western blot); assay type: in vivo, C57BL/6N mice; conditions: vs HFD group
# Method: as §1
# (§2) Total protein was extracted using a protein extraction kit (PC201Plus, Epizyme). Then, the protein concentration was measured using a BCA kit (PC0020, Solarbio). The 50 μg of the total protein samples were loaded onto an SDS-PAGE gel. Following electrophoresis, the protein was transferred into polyvinylidene fluoride (PVDF) membranes. Whereafter, the membranes were first blocked with 5% nonfat dry milk in TBST and incubated with primary antibodies against FXR (bs-12867R, Bioss, 1:1000), GPAT4 (bs-15587R, Bioss, China, 1:1000), P62 (380612-50, Zenbio, China, 1:1000), HSL (344379-50, Zenbio, China, 1:1000), MAGL (PAD223Hu01, Cloud-Clone Corp, China, 1:1000), Beclin1 (BS-1353R, Bioss, China, 1:1000), ATGL (R389129-50, Bioss, China, 1:1000), LC3Ⅰ/Ⅱ (ABC929, Merck, USA, 1:1000), β-actin (bs-0061R, Bioss, China, 1:5000) and GAPDH (GB11002-100, Servicebio, China, 1:5000). After 12 h of incubation at 4 °C, the blots were proceeded with HRP-conjugated secondary antibody. Finally, the immune bands were detected using an ECL detection kit (sb-wb012, Shanghai Shenger Biotechnology Co., Ltd, China). The average gray value was quantified using Image J software.
# [2] = test system: oleic acid-induced HepG2 cells; assay: ORO staining of lipid droplets in oleic acid-induced HepG2 cells; assay type: cell-based, human; conditions: HepG2, OA 24 h; 15% SNS-containing serum vs NS serum, or OCA 1 μM
# Method: (§3) The HepG2 cell line was purchased from the American Type Culture Collection (Manassas, USA) and cultured in RPMI 1640 medium (Solarbio, China) with 10% fetal bovine serum (Gibco, USA) in an atmosphere with 5% CO2 and 100% humidity at 37 ℃. Oleic acid (OA) was purchased from Shanghai Macklin Biochemical Co., Ltd. (C11391320, Macklin, China). […] Cells were inoculated into 6-well plates and 96-well plates and treated with OA solution and SNS/NS-containing serum for 24 h.
# In vitro, the HepG2 cell cells were firstly seeded in 6-well plates (3 × 10^5 cells/well). After the cells were washed with PBS, ORO fixative was added to each well for 20–30 min, and 60% isopropyl alcohol was added to each well for 5 min. Then, ORO staining solution was used to stain the cells for 10–20 min. After the cells were washed with PBS, hematoxylin staining solution was used to re-stain the nucleus. Then, we added ORO buffer for 1 min. Finally, we used glycerin gelatin to seal the tablets. The changes in LDs were measured with Image Pro Plus v6.0 software (Media Cybemetic, USA).
# LDAH = LDAH protein level in liver of MAFLD mice (western blot); assay type: in vivo, C57BL/6N mice; conditions: vs HFD group
# GPAT4 [3] = assay: GPAT4 expression in oleic acid-induced HepG2 cells (western blot); assay type: cell-based, human; conditions: HepG2, OA 24 h; 15% SNS-containing serum or OCA 1 μM
# Method: as §3
# (§4) Total protein was extracted using a protein extraction kit (PC201Plus, Epizyme). Then, the protein concentration was measured using a BCA kit (PC0020, Solarbio). The 50 μg of the total protein samples were loaded onto an SDS-PAGE gel. Following electrophoresis, the protein was transferred into polyvinylidene fluoride (PVDF) membranes. […] Finally, the immune bands were detected using an ECL detection kit (sb-wb012, Shanghai Shenger Biotechnology Co., Ltd, China). The average gray value was quantified using Image J software.
# FXR [4] = assay: FXR expression in oleic acid-induced HepG2 cells (western blot); assay type: cell-based, human; conditions: HepG2, OA 24 h; 15% SNS-containing serum or OCA 1 μM
# Method: as §3, §4
# FXR [5] = assay: FXR protein expression in liver and colon of MAFLD mice (western blot, IHC); assay type: in vivo, C57BL/6N mice
# Method: as §1, §2
# The paraffin sections of liver were performed dewaxing followed by antigen retrieval, then add FXR primary antibody (bs-12867R, Bioss, 1:200) and GPAT4 primary antibody (bs-1924R, Bioss, 1:200), and incubate overnight at 4 °C. After the diaminobenzidine (DAB) enhanced staining, the sections were mounted with neutral gum. Finally, the images were observed and captured via a Leica DM4000B light microscope (Germany).
# GPAT4 [6] = assay: GPAT4 protein expression in liver of MAFLD mice (western blot, IHC); assay type: in vivo, C57BL/6N mice; conditions: vs HFD group
# Method: as §1
# as §2, with “After 12 h of incubation at 4 °C, the blots were proceeded with HRP-conjugated secondary antibody.” left out, “software. […]” for “software.”
# [7] = test system: T2DM and high-risk obese individuals; conditions: cited from earlier work
# NASH = test system: NASH; set-up: method as in PMID 38324483; conditions: MAESTRO-NASH Phase III trial; cited from earlier work
compound,measurement,setting,value
COc1ccc([C@@H]2CC(=O)c3c(O)cc(O[C@@H]4O[C@H](CO)[C@@H](O)[C@H](O)[C@H]4O[C@@H]4O[C@@H](C)[C@H](O)[C@@H](O)[C@H]4O)cc3O2)cc1O [Neohesperidin],Rmax,FXR protein,181.5 RU
COc1ccc(-c2cc(=O)c3c(OC)c(OC)c(OC)c(OC)c3o2)cc1OC [Nobiletin],Rmax,FXR protein,210.1 RU
"CC[C@H]1[C@@H](O)[C@@H]2[C@H](CC[C@]3(C)[C@@H]([C@H](C)CCC(=O)O)CC[C@@H]23)[C@@]2(C)CC[C@@H](O)C[C@@H]12 [OCA, Obeticholic acid]",liver coefficient (liver weight/body weight),MAFLD mice,restored to normal levels
same,body weight at week 12,MAFLD mice; vs HFD group,significantly decreased body weight
same,hepatic TBA level,MAFLD mice; vs HFD group,reduced TBA levels
same,liver LDs deposition (H&E and ORO staining),MAFLD mice; vs HFD group,significantly reduced LDs compared to the HFD group
same,liver weight,MAFLD mice; vs HFD group,significant reduction in liver weights
same,serum ALT,MAFLD mice; vs HFD group,effectively reduced liver injury induced by HFD
same,serum AST,MAFLD mice; vs HFD group,effectively reduced liver injury induced by HFD
same,serum LDL-C,MAFLD mice; vs HFD group,reduced following SNS and OCA treatment
same,serum TC,MAFLD mice; vs HFD group,reduced following SNS and OCA treatment
same,serum TG,MAFLD mice; vs HFD group,reduced following SNS and OCA treatment
same,ATGL expression,[1],increased HSL and ATGL expression
same,Beclin1 expression,[1],activated Beclin1
same,HSL expression,[1],increased HSL and ATGL expression
same,MAGL expression,[1],decreased MAGL expression
same,P62 expression,[1],suppressed P62 expression
same,intracellular LDs accumulation (ORO staining),[2],reduced LDs deposition in cells
same,protein level of LDAH,LDAH,downregulated LDAH
same,Rmax,FXR protein,32.0 RU
same,GPAT4 expression in cells,GPAT4 [3],inhibited GPAT4 expression in cells
same,FXR expression in cells,FXR [4],increased FXR expression
same,positive localization of FXR in liver tissues,"FXR [5]; IHC, liver",increased the positive localization of FXR in liver tissues
same,FXR expression in the colon,"FXR [5]; western blot, colon, vs HFD group",elevated colonic FXR expression
same,hepatic FXR expression,"FXR [5]; western blot, liver, vs HFD group",activated its expression; also recorded: activated FXR
same,positive localization of GPAT4 in liver tissues,GPAT4 [6]; IHC,reduced the positive localization of GPAT4 in liver tissues
same,GPAT4 expression in liver,GPAT4 [6]; western blot,inhibited GPAT4 expressions
COc1cc(-c2oc3cc(O)cc(O)c3c(=O)c2O)ccc1O [Isorhamnetin],Rmax,FXR protein,20.3 RU
Semaglutide,reduction in major adverse cardiovascular events,"[7]; SUSTAIN 6 and SELECT, T2DM and high-risk obese individuals",18–20%
same,weight loss,[7],at least 10%
same,safety profile,"[7]; human, in vivo",common gastrointestinal reactions and infrequent serious adverse events
COc1ccc([C@@H]2CC(=O)c3c(O)cc(O[C@@H]4O[C@H](CO[C@@H]5O[C@@H](C)[C@H](O)[C@@H](O)[C@H]5O)[C@@H](O)[C@H](O)[C@H]4O)cc3O2)cc1O [Hesperidin],Rmax,FXR protein,49.9 RU
CC(C)c1cc(Oc2c(Cl)cc(-n3nc(C#N)c(=O)[nH]c3=O)cc2Cl)n[nH]c1=O [Resmetirom],LDL-C decrease,NASH,13–16%
same,NASH resolution,NASH,26–30%
same,fibrosis improvement,NASH,24–26%
same,tolerability / adverse events,NASH,"well-tolerated, with primarily mild diarrhea and nausea, and a serious adverse event rate comparable to placebo"
O=C1C[C@@H](c2ccc(O[C@@H]3O[C@H](CO)[C@@H](O)[C@H](O)[C@H]3O)cc2)Oc2cc(O)ccc21 [Liquiritin],Rmax,FXR protein,12.1 RU
